Test results taken from the supplement of paper PMC8566230.
± gives the standard deviation of the averaged measurements.

Legend:
Assay in all cases: cell viability with growth factor relative to same drug with BSA mock; higher = growth factor protects cells from drug (more viable cells)
Details in all cases: treatment time: 6 days
SH-SY5Y = system: SH-SY5Y
Procedure: (§1)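 Six neuroblastoma cell lines were treated with a kinase inhibitor or vincristine at a fixed dose (70–90% lethal) plus a growth factor (100 ng/ml) or 0.1% BSA mock for 72 h. Drugs and growth factors were then renewed for another 72 h (6 days total). Viability was read by XTT in triplicate and normalised to the same drug plus BSA (=100%).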

LAN-1 = system: LAN-1
Procedure: as §1

SK-N-AS = system: SK-N-AS
Procedure: as §1

SK-N-BE = system: SK-N-BE
Procedure: as §1

SK-N-SH = system: SK-N-SH
Procedure: as §1

Kelly = system: Kelly
Procedure: as §1

CC[C@]1(O)C[C@H]2CN(CCc3c([nH]c4ccccc34)[C@@](C(=O)OC)(c3cc4c(cc3OC)N(C=O)[C@H]3[C@@](O)(C(=O)OC)[C@H](OC(C)=O)[C@]5(CC)C=CCN6CC[C@]43[C@@H]65)C2)C1 [vincristine]
cell viability with growth factor [%]
Details | added growth factor (100 ng/ml): BDNF | added growth factor (100 ng/ml): EPO | added growth factor (100 ng/ml): HGF | added growth factor (100 ng/ml): IGF-1 | added growth factor (100 ng/ml): NGF | added growth factor (100 ng/ml): SCF
Kelly, drug concentration: 5 nM | 86.8 ± 27 | 89.5 ± 19 | 95.4 ± 11 | 200 ± 22 | 70.2 ± 8 | 99.2 ± 12
LAN-1, drug concentration: 5 nM | 84.5 ± 2.9 | 151 ± 11 | 116 ± 17 | 99.3 ± 29 | 92.4 ± 13 | 116 ± 28
SH-SY5Y, drug concentration: 25 nM | 110 ± 12 | 149 ± 18 | 108 ± 23 | 110 ± 20 | 208 ± 19 | 97.4 ± 16
SK-N-AS, drug concentration: 5 nM | 95 ± 8.7 | 78.5 ± 19 | 124 ± 7.1 | 219 ± 6.4 | 88.2 ± 6.7 | 97.3 ± 13
SK-N-BE, drug concentration: 20 nM | 98 ± 21 | 171 ± 42 | 97.5 ± 6 | 116 ± 24 | 137 ± 5.2 | 128 ± 12
SK-N-SH, drug concentration: 5 nM | 98 ± 4.7 | 152 ± 6.7 | 97.7 ± 12 | 142 ± 9.5 | 129 ± 13 | 88.1 ± 8.1

CNC(=O)c1ccccc1Sc1ccc2c(/C=C/c3ccccn3)n[nH]c2c1 [axitinib]
cell viability with growth factor [%]
Details | added growth factor (100 ng/ml): BDNF | added growth factor (100 ng/ml): EPO | added growth factor (100 ng/ml): HGF | added growth factor (100 ng/ml): IGF-1 | added growth factor (100 ng/ml): NGF | added growth factor (100 ng/ml): SCF
Kelly, drug concentration: 10 uM | 143 ± 2 | 177 ± 19 | 94.1 ± 20 | 57.3 ± 21 | 148 ± 2.5 | 106 ± 12
LAN-1, drug concentration: 5 uM | 112 ± 12 | 173 ± 13 | 93 ± 28 | 98.5 ± 17 | 159 ± 30 | 117 ± 8.8
SH-SY5Y, drug concentration: 2.5 uM | 104 ± 15 | 138 ± 23 | 95.7 ± 17 | 80.7 ± 16 | 137 ± 12 | 107 ± 2.2
SK-N-AS, drug concentration: 5 uM | 95.7 ± 6.5 | 101 ± 7.1 | 85.5 ± 27 | 48.7 ± 2.5 | 96.1 ± 8 | 99 ± 6.2
SK-N-BE, drug concentration: 5 uM | 103 ± 34 | 142 ± 8.8 | 100 ± 21 | 255 ± 41 | 122 ± 30 | 149 ± 32
SK-N-SH, drug concentration: 10 uM | 109.9 ± 0.6 | 177 ± 27 | 96.8 ± 21 | 60 ± 5.2 | 118 ± 6.3 | 83.5 ± 19

Cc1nc(Nc2ncc(C(=O)Nc3c(C)cccc3Cl)s2)cc(N2CCN(CCO)CC2)n1 [dasatinib]
cell viability with growth factor [%]
Details | added growth factor (100 ng/ml): BDNF | added growth factor (100 ng/ml): EPO | added growth factor (100 ng/ml): HGF | added growth factor (100 ng/ml): IGF-1 | added growth factor (100 ng/ml): NGF | added growth factor (100 ng/ml): SCF
Kelly, drug concentration: 500 nM | 86.8 ± 2.7 | 238 ± 40 | 198 ± 9.8 | 292 ± 36 | 164 ± 34 | 95.8 ± 9.8
LAN-1, drug concentration: 5 nM | 93.1 ± 4.4 | 228 ± 30 | 129 ± 14 | 138 ± 19 | 273 ± 23 | 97.6 ± 14
SH-SY5Y, drug concentration: 25 nM | 131 ± 13 | 320 ± 21 | 97 ± 28 | 135 ± 13 | 217 ± 38 | 169 ± 6.2
SK-N-AS, drug concentration: 50 nM | 117 ± 16 | 108 ± 8.2 | 134 ± 14 | 235 ± 27 | 104 ± 7.1 | 82.7 ± 13
SK-N-BE, drug concentration: 500 nM | 90.9 ± 20 | 130 ± 5.7 | 111 ± 27 | 185 ± 19 | 83.6 ± 3.1 | 146 ± 12
SK-N-SH, drug concentration: 500 nM | 99.7 ± 1 | 126 ± 5.9 | 151 ± 4.3 | 205 ± 33 | 116 ± 15 | 113 ± 22

C[C@@H](Oc1cc(-c2cnn(C3CCNCC3)c2)cnc1N)c1c(Cl)ccc(F)c1Cl [crizotinib]
cell viability with growth factor [%]
Details | added growth factor (100 ng/ml): BDNF | added growth factor (100 ng/ml): EPO | added growth factor (100 ng/ml): HGF | added growth factor (100 ng/ml): IGF-1 | added growth factor (100 ng/ml): NGF | added growth factor (100 ng/ml): SCF
Kelly, drug concentration: 1 uM | 352 ± 40 | 365 ± 77 | 112 ± 35 | 176 ± 5.4 | 300 ± 15 | 107 ± 25
LAN-1, drug concentration: 2.5 uM | 232 ± 53 | 241 ± 35 | 227 ± 46 | 186 ± 23 | 359 ± 36 | 142 ± 20
SH-SY5Y, drug concentration: 2.5 uM | 118 ± 23 | 137 ± 13 | 174 ± 30 | 101 ± 24 | 184 ± 51 | 120 ± 11
SK-N-AS, drug concentration: 5 uM | 103 ± 4.9 | 89.6 ± 9.9 | 106 ± 51 | 130 ± 2.1 | 73.9 ± 16 | 106 ± 19
SK-N-BE, drug concentration: 5 uM | 422 ± 55 | 123 ± 85 | 88.9 ± 4.9 | 291 ± 44 | 173 ± 82 | 121 ± 22
SK-N-SH, drug concentration: 1 uM | 122 ± 3.9 | 111 ± 5.7 | 82.7 ± 14 | 90.8 ± 22 | 210 ± 22 | 95.3 ± 19

COc1cc2nccc(Oc3ccc(NC(=O)C4(C(=O)Nc5ccc(F)cc5)CC4)cc3)c2cc1OC [cabozantinib]
cell viability with growth factor [%]
Details | added growth factor (100 ng/ml): BDNF | added growth factor (100 ng/ml): EPO | added growth factor (100 ng/ml): HGF | added growth factor (100 ng/ml): IGF-1 | added growth factor (100 ng/ml): NGF | added growth factor (100 ng/ml): SCF
Kelly, drug concentration: 5 uM | 109 ± 1.2 | 118 ± 3.6 | 84.5 ± 11 | 73 ± 30 | 133 ± 21 | 101 ± 8.5
LAN-1, drug concentration: 5 uM | 125 ± 8.8 | 160 ± 35 | 168 ± 11 | 123 ± 11 | 161 ± 27 | 93.5 ± 13
SH-SY5Y, drug concentration: 2.5 uM | 114 ± 22 | 127 ± 21 | 151 ± 9.4 | 139 ± 33 | 183 ± 25 | 81.1 ± 16
SK-N-AS, drug concentration: 7.5 uM | 124 ± 15 | 99 ± 3.2 | 108 ± 12 | 84.9 ± 18 | 95.9 ± 3.2 | 96.9 ± 10
SK-N-BE, drug concentration: 7.5 uM | 278 ± 42 | 200 ± 25 | 248 ± 48 | 316 ± 30 | 191 ± 8.9 | 251 ± 44
SK-N-SH, drug concentration: 5 uM | 153 ± 14 | 110.1 ± 0.79 | 94.5 ± 8.7 | 59.6 ± 6.7 | 153 ± 3.5 | 124 ± 13

Cc1ccc(NC(=O)c2ccc(CN3CCN(C)CC3)cc2)cc1Nc1nccc(-c2cccnc2)n1 [imatinib]
cell viability with growth factor [%]
Details | added growth factor (100 ng/ml): BDNF | added growth factor (100 ng/ml): EPO | added growth factor (100 ng/ml): HGF | added growth factor (100 ng/ml): IGF-1 | added growth factor (100 ng/ml): NGF | added growth factor (100 ng/ml): SCF
Kelly, drug concentration: 25 uM | 165 ± 36 | 184 ± 21 | 167 ± 46 | 145 ± 15 | 125 ± 3.2 | 134 ± 11
LAN-1, drug concentration: 20 uM | 101 ± 4.4 | 121 ± 7.4 | 86.4 ± 27 | 117 ± 5.8 | 135 ± 18 | 99.4 ± 9.5
SH-SY5Y, drug concentration: 25 uM | 94.8 ± 19 | 166 ± 25 | 106 ± 12 | 99.5 ± 3.6 | 207 ± 39 | 111 ± 7.6
SK-N-AS, drug concentration: 20 uM | 104 ± 18 | 103 ± 22 | 123 ± 46 | 134 ± 24 | 111 ± 5.8 | 112 ± 19
SK-N-BE, drug concentration: 25 uM | 103 ± 11 | 217 ± 32 | 103 ± 17 | 124 ± 5.7 | 179 ± 16 | 76.9 ± 2.5
SK-N-SH, drug concentration: 25 uM | 106 ± 16 | 121 ± 10 | 143 ± 32 | 110 ± 36 | 110 ± 15 | 98.2 ± 18
